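Step 1: Grow cells in 96-well plates. Step 2: Expose to compound for 48 hours at 5 concentrations. Step 3: Interpolate endpoints linearly; if unreached, use highest concentration. TGI is the concentration that stops growth completely.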
Assays:
Assay in all cases: growth of human tumour cells (NCI), 48 h
SK-MEL-2 melanoma = system: SK-MEL-2 melanoma
SN12C renal = system: SN12C renal
EKVX NSCLC = system: EKVX NSCLC
DU-145 prostate = system: DU-145 prostate
TK-10 renal = system: TK-10 renal
T-47D breast = system: T-47D breast
NCI-H460 lung = system: NCI-H460 lung
786-0 renal = system: 786-0 renal
BT-549 breast = system: BT-549 breast
CAKI-1 renal = system: CAKI-1 renal
ACHN renal = system: ACHN renal
RPMI-8226 leukemia = system: RPMI-8226 leukemia
MOLT-4 leukemia = system: MOLT-4 leukemia
HS 578T breast = system: HS 578T breast
KM12 colon = system: KM12 colon
CCRF-CEM leukemia = system: CCRF-CEM leukemia
OVCAR-5 ovarian = system: OVCAR-5 ovarian
LOX IMVI melanoma = system: LOX IMVI melanoma

SMILES	TGI (SK-MEL-2 melanoma) [µM]	TGI (SN12C renal) [µM]	TGI (EKVX NSCLC) [µM]	TGI (DU-145 prostate) [µM]	TGI (TK-10 renal) [µM]	TGI (T-47D breast) [µM]	TGI (NCI-H460 lung) [µM]	TGI (786-0 renal) [µM]	TGI (BT-549 breast) [µM]	TGI (CAKI-1 renal) [µM]	TGI (ACHN renal) [µM]	TGI (RPMI-8226 leukemia) [µM]	TGI (MOLT-4 leukemia) [µM]	TGI (HS 578T breast) [µM]	TGI (KM12 colon) [µM]	TGI (CCRF-CEM leukemia) [µM]	TGI (OVCAR-5 ovarian) [µM]	TGI (LOX IMVI melanoma) [µM]
C[N+]12C=CC=C1C(N1CCCC1)c1scc(-c3ccc(Br)cc3)c12 (stereo unspecified)	17.3	> 35.7	> 100	> 100	> 100	61.8	> 84.7	> 100	17.7	> 100	> 100	28.9	> 65.3	9.6	25.9	58.9	> 100	> 100
COc1ccc(C(SCCO)(c2ccccc2)c2ccc(OC)cc2)cc1	25.8	30.5	29.7	30.6	33.5	34.1	17.2	29.1	36.8	40.6	29.6	69.1	50.2	> 44.1	21.5	40.7	31.6	33.8
N#C/C(N)=C(\C#N)NC=NCCO	> 100	> 100	> 100	> 100	> 100	> 100	> 100	> 100	> 100	> 100	> 100	> 100	> 100	> 100	> 100	> 100	> 100	> 100
C[C@]12[C@@H]3CC[C@H]1[C@@H](O)C(=O)N2CC3	> 100	> 100	> 100	> 100	> 100	> 100	> 100	> 100	> 100	> 100	> 100	> 100	> 100	> 100	> 100	> 100	> 100	> 100
O=C1C(Br)=C(Br)C(=O)c2ccc(=O)ccc21	> 75.1	33.7	> 90.9	> 100	37.2	48.5	67.6	32.7	44.6	64.2	33.8	43	23.5	> 84.5	> 100	17	> 86.7	41.2
CCOC(=O)c1cn2c(n1)sc1cc(F)ccc12	> 100	> 100	> 100	> 100	> 100	> 100	> 100	> 100	> 100	> 100	> 100	> 100	> 100	> 100	> 100	> 100	> 100	> 100
CC(C)(CN1CCCCC1)C(/C=C/c1ccc(Cl)cc1)=N\NC(=O)N/N=C(/C=C/c1ccc(Cl)cc1)C(C)(C)CN1CCCCC1	22.8	14.6	18.8	18	22.5	13.6	10.2	11.1	13.2	7.3	15	54.8	9.97	19.9	16.9	> 21.9	14.7	5.97
O=C(O)Cc1ccc([N+](=O)[O-])cc1[N+](=O)[O-]	> 100	> 100	> 100	> 100	> 100	> 100	> 100	> 100	> 100	> 100	> 100	> 100	> 100	> 100	> 100	> 100	> 100	> 100
COCOC1/C=C/CCCCC(=O)C(C)C#CC1 (stereo unspecified)	21.2	19	23.1	25.4	21.6	6.39	23.9	5.44	19.3	13.7	19.9	5.96	5.64	> 73.7	25.5	5.81	26.2	7.36
COc1ccc(C2=CC(C(C)=C(C(N)=O)C(N)=O)C=C(c3ccc(Br)cc3)C2)c(OC)c1 (stereo unspecified)	> 100	> 100	> 100	> 100	> 100	> 100	> 100	> 100	> 100	> 100	> 100	> 100	> 100	> 100	> 100	> 100	> 100	> 100
CCOC(=O)CCC(NC(=O)C(N)Cc1ccc(N(CCCl)CCCl)cc1)C(=O)OCC (stereo unspecified)	6.05	5.72	6.53	2.34	4.41	3.84	4.09	2.08	12.4	3.08	0.692	17.7	1.99	4.93	3.43	4.29	7.19	1.63
C[C@]12c3c4cc(NC(=O)C(=O)NCc5ccc(-c6ccccn6)nc5)cc3Oc3cc(NC(=O)C(=O)NCc5ccc(-c6ccccn6)nc5)cc(c31)OC1C=C(NC(=O)C(=O)NCc3ccc(-c5ccccn5)nc3)C=C(O4)C12 (stereo partly specified)	> 100	> 100	62.4	98.6	> 100	97.9	> 100	75.5	> 100	93.4	59.2	> 100	> 100	> 100	> 100	> 100	> 100	70.4
O=c1[nH]c(=O)n(C2COC(CO)C2O)cc1F (stereo unspecified)	> 100	> 100	> 100	> 100	> 100	> 100	> 100	> 100	> 100	> 100	> 100	> 100	> 100	> 100	> 100	> 100	> 100	> 100
O=C1c2ccccc2-n2nnnc2C2CSCN12 (stereo unspecified)	> 100	> 100	> 100	> 100	> 100	> 100	> 100	> 100	> 100	> 100	> 100	> 100	> 100	> 100	> 100	> 100	> 100	> 100
O=C1c2cccc3cc([N+](=O)[O-])cc(c23)C(=O)N1Nc1ccc([N+](=O)[O-])cc1[N+](=O)[O-]	> 100	> 73.5	> 46.4	> 46.4	> 46.4	> 31.6	36.2	35.7	> 31.6	> 31.6	7.06	> 31.6	11.8	> 31.6	26.3	14.5	> 100	19.4
CC(=O)CC1CCC(=O)/C=C/C(=O)OC(CC(C)=O)CCC(=O)/C=C/C(=O)O1 (stereo unspecified)	19.8	15.3	21.2	35	19	6.79	36.3	10.6	6.7	20	11.2	> 100	> 100	69.9	42.8	> 100	31.5	35.1
CCCCCCc1cc2cc(-c3cn4ccsc4n3)c(=O)oc2cc1O	> 100	> 100	> 100	> 100	> 100	> 100	> 100	> 100	> 100	> 95.9	> 100	> 100	> 100	> 77	> 100	> 100	> 100	> 100
COc1ccc(C(C)NNC(=O)c2ccncc2)cc1OC (stereo unspecified)	> 100	> 100	> 100	> 100	> 100	> 100	> 100	> 100	> 100	> 100	> 100	> 100	> 100	> 100	> 100	> 100	> 100	> 100
COc1ccc2oc3c(C)cc4c(OC)nnc(OC)c4c3c2c1	> 100	> 100	> 100	> 100	91.9	> 100	> 100	> 100	> 100	> 100	> 100	> 100	> 100	> 100	> 100	> 100	> 100	> 100
O=C1c2ccccc2C(=O)c2c(/C=C\N3CCCCC3)ccnc21	14	4.14	31.2	2.96	34.4	> 44	4.91	31.3	2.22	39.5	21.1	52.6	41.1	4.32	18	47.6	16.2	1.68
O=c1c(F)cn(Cc2c(Cl)cccc2Cl)c(=O)n1Cc1c(Cl)cccc1Cl	> 31.6	> 31.6	> 31.6	> 100	> 31.6	> 31.6	> 31.6	> 31.6	> 31.6	> 31.6	> 31.6	> 31.6	> 31.6	> 31.6	> 31.6	> 31.6	> 31.6	> 31.6
CC1=C/C(=N\NC(N)=S)C(C(O)(C(F)(F)F)C(F)(F)F)C(C)(C)C1 (stereo unspecified)	> 10	> 10	> 10	> 10	> 10	> 10	> 10	> 10	> 10	> 10	> 10	> 10	> 10	> 10	> 10	> 10	> 10	> 10

Reference: PubChem BioAssay (NCI)
